Holding throughout (assay): growth of human tumour cells (NCI), 48 h
For experiment [1], the system named is SK-MEL-28 melanoma.
Experiment [2] concerns MDA-MB-231 breast.
In experiment [3] the test system is HS 578T breast.
Experiment [4] deals with DU-145 prostate.
The subject of experiment [5] is HOP-62 NSCLC.
Experiment [6] has as its system OVCAR-5 ovarian.
For experiment [7], the system named is OVCAR-8 ovarian.
The test system of experiment [8] is HL-60(TB) leukemia.
Experiment [9] concerns HOP-92 NSCLC.
Experiment [10] deals with A498 renal.

This is an account of results in PubChem BioAssay (NCI).

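Each compound was tested at five concentrations against cells in 96-well plates for 48 hours. Definition used: TGI = concentration required for complete inhibition of growth.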

Turning to `N#Cc1nc(CCCN2C(=O)c3ccccc3C2=O)oc1N`, the TGI in experiment [1], in experiment [2], in experiment [3], in [4], in experiment [5] and in experiment [6] was above 100 µM throughout. In [7], the TGI was above 100 µM.
`N#C/C(=C\c1cccc(Br)c1)c1nc2ccccc2c(=O)[nH]1`: the TGI is above 100 µM in [1]; above 100 µM in experiment [2]; above 100 µM in [8]; 53.2 µM in experiment [9]; above 100 µM in experiment [4]; 62.7 µM in experiment [5]. Also, the TGI in [6] and in experiment [7] was above 100 µM throughout.
As to `CCCCCCCCCCCCOCCOCCOCCOCCOCCOCC(=O)NC(Cc1ccccc1)C(=O)Oc1ccc([N+](=O)[O-])cc1` (stereo not given), the TGI in [10] was 75.6 µM; in [2], above 100 µM; in experiment [8] it was above 100 µM; in experiment [3] it was above 100 µM; in experiment [9] it was above 100 µM; in experiment [5], above 100 µM. For the same compound, the TGI in experiment [6] and in experiment [7] was above 100 µM in each case.
`C[C@H](c1ccccc1)N1C(=O)[C@@H](OCc2ccccc2)[C@H]1[C@H](COC(=O)COCc1ccccc1)OCc1ccccc1`: the TGI in experiment [1], in experiment [10], in experiment [2], in [3], in [9] and in experiment [4] was above 100 µM in each case. The TGI in experiment [5] and in experiment [6] was above 100 µM in each case.
Consider `c1c(N2CCOCC2)ssc1=[N+]1CCOCC1`, for which the TGI in [1], in experiment [10], in [8], in experiment [9], in [5] and in experiment [6] was above 100 µM each time. In experiment [7], this compound registered a TGI above 100 µM.
As for `O=C(/C=C\Nc1ccccc1O)C(F)(F)F`, the TGI in experiment [1] was above 100 µM; in [2] it was above 100 µM; in [8], 67.8 µM; in experiment [3], above 100 µM; in [9] it was above 100 µM; in experiment [4], above 100 µM. The TGI in [5], in experiment [6] and in experiment [7] was above 100 µM throughout.
For the compound `N#Cc1nc(C2CCC(=O)O2)oc1N` (stereo not given), the TGI in [1], in experiment [10], in experiment [2], in experiment [8], in experiment [3] and in [4] was above 100 µM throughout. For the same compound, the TGI in experiment [5], in [6] and in [7] was above 100 µM each time.
`S=c1[nH]nc(Cn2c3ccc(Br)cc3c3nc4ccccc4nc32)n1C1CCCCC1`: the TGI in experiment [1] is above 56.8 µM; in experiment [10] it was 58.1 µM; in experiment [2], above 75.2 µM; in experiment [9] it was 19.6 µM; in [4] it was above 100 µM; in [5] it was above 63.5 µM. The TGI is above 100 µM in experiment [6] and above 67.5 µM in experiment [7].
In the case of `Cc1cccc(NS(=O)(=O)c2ccc(N=Nc3c(O)c(C(=O)O)cc4ccccc34)cc2)n1`, the TGI in experiment [1], in [2], in experiment [8], in [3], in experiment [9] and in [5] was above 100 µM in each case. The TGI in [6] and in [7] was above 100 µM in each case.
`COc1cc(OC)cc(Oc2nc3cc(F)c(F)cc3nc2-c2ccccc2)c1`: the TGI in experiment [1], in experiment [10], in experiment [8], in experiment [3], in experiment [9] and in experiment [4] was above 100 µM in each case. In addition, the TGI in experiment [5], in [6] and in experiment [7] was above 100 µM in each case.
As to `CN(C)CCNc1c([N+](=O)[O-])sc2ccc(Cl)cc12`, the TGI in [1], in experiment [10], in experiment [2], in experiment [8], in [3] and in experiment [4] was above 100 µM each time. The TGI in [5], in experiment [6] and in experiment [7] was above 100 µM each time.
On to `CC(=O)OC1CC2(O)C(CCC3(C)C(c4ccc(=O)oc4)CCC32O)C2(C)C1=CC(O)C1OC12` (stereo not given), for which the TGI in [1] was found to be 0.592 µM; in experiment [10] it was 0.582 µM; in experiment [8], 1.28 µM; in experiment [9] it was 0.157 µM; in [5], 0.172 µM; in [6] it was 0.772 µM. Moreover, the TGI in experiment [7] worked out at 0.258 µM.
`COC(=O)C1=C(C)NC(C)=C(C(=O)OC)C1c1cccc(N=O)c1`: the TGI in experiment [1] came out at 30.4 µM; in experiment [10], 98.2 µM; in [2], 27.9 µM; in experiment [8], 25.8 µM; in experiment [9], 20.1 µM; in experiment [4], 29.7 µM. In addition, the figures for the TGI in experiment [5], in [6] and in experiment [7] were 56.2 µM, 32.3 µM and 28.5 µM, respectively.
`Cc1ccc(C(=O)Cc2nc3c([nH]c2=O)c(C)nn3-c2ccccc2)c(C)c1`: the TGI in [1], in experiment [2], in [8], in experiment [3], in experiment [9] and in experiment [4] was above 10 µM in each case. Also, the TGI in [5] and in [7] was above 10 µM each time.
On to `CCCO/N=[N+](\[O-])N(CC)CC`, for which the TGI in experiment [1], in experiment [10], in experiment [8], in experiment [9], in experiment [5] and in experiment [6] was above 100 µM throughout. Moreover, the TGI in experiment [7] is above 100 µM.
Regarding `CCC(=O)Nc1ccc(NS(=O)(=O)c2ccc(Cl)cc2)cc1`, the TGI in [1], in experiment [10], in experiment [8], in [3], in experiment [9] and in [4] was above 100 µM each time. Besides, the TGI in experiment [5], in experiment [6] and in experiment [7] was above 100 µM each time.
